Bounds are passed on as bounds.

One may read the IC50 as the concentration needed to halve the response being measured.

This assay concerns the target T1, human neutrophil elastase (HNE) (Homo sapiens, UniProt P08246).
T1 construct: purchased Sigma E8140
T1 sequence (P08246 30-247 limits assumed): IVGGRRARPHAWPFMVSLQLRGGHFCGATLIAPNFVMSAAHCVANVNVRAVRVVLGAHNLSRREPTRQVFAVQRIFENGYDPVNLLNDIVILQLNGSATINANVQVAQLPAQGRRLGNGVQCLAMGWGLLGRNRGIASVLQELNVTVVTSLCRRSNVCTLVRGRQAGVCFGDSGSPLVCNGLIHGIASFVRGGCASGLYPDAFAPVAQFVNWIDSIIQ
In words: HNE Enzyme Assay (fluorogenic peptide substrate MeOSuc-Ala-Ala-Pro-Val-AMC). Format: biochemical. Particulars: human leukocyte elastase 0.00072 U/mL, substrate 100 μM, 25° C., 30 minutes, at least two separate experiments; read-out: HNE inhibition (IC50 values). On the procedure:
Compounds of this invention were tested for potency in a human neutrophil elastase (HNE) enzyme activity assay.
Assays were performed in 96-well plates in a total assay volume of 100 μL. The final concentration of elastase enzyme (human leukocyte elastase, Sigma E8140) was 0.00072 U/mL. The peptide substrate (MeOSuc-Ala-Ala-Pro-Val-AMC, Calbiochem #324740) was used at a final concentration of 100 μM. The final concentration of DMSO was 1% in the assay buffer (0.05M Tris.HCl, 0.1M NaCl, 0.1M CaCl2, 0.0005% Brij-35, pH 7.5). The enzymatic reaction was started by addition of the enzyme and incubated at 25° C. for 30 minutes. After incubation, the reaction was stopped by addition of soybean trypsin inhibitor (Sigma T9003) at a final concentration of 50 μg/well. Fluorescence was measured using a Molecular Devices fluorescence plate reader using 380 nm excitation and 460 nm emission wavelengths.
A concentration response to each compound was performed and the effect of compound in each experiment was expressed as a percentage inhibition of the control enzyme fluorescence. Dose response curves were plotted and compound potency (IC50) was determined. Compounds were tested in at least two separate experiments.
As to `Cc1c(-c2ccnn2-c2ccc(C#N)cc2)n(C(=O)N[C@@H](C)C(=O)N2CCC(N(C)C)CC2)c(=O)n1-c1cccc(C(F)(F)F)c1` [Example 19, 5-[2-(4-Cyano-phenyl)-2H-pyrazol-3-yl]-4-methyl-2-oxo-3-(3-trifluoromethyl-phenyl)-2,3-dihydro-imidazole-1-carboxylic acid [(S)-2-(4-dimethylamino-piperidin-1-yl)-1-methyl-2-oxo-ethyl]-amide], the IC50 was < 1 nM.
For `Cc1c(-c2ccnn2-c2ccc(C#N)cc2)n(C(=O)N[C@@H](C)C(=O)N(C)CCN(C)C)c(=O)n1-c1cccc(C(F)(F)F)c1` [Example 20, 5-[2-(4-Cyano-phenyl)-2H-pyrazol-3-yl]-4-methyl-2-oxo-3-(3-trifluoromethyl-phenyl)-2,3-dihydro-imidazole-1-carboxylic acid {(S)-1-[(2-dimethylamino-ethyl)-methyl-carbamoyl]-ethyl}-amide], the IC50 was < 1 nM.
Then `Cc1c(-c2ccnn2-c2ccc(C#N)cc2)n(C(=O)N[C@H](c2ncc(CN(C)C)o2)C(C)C)c(=O)n1-c1cccc(C(F)(F)F)c1` [Example 21, 5-[2-(4-Cyano-phenyl)-2H-pyrazol-3-yl]-4-methyl-2-oxo-3-(3-trifluoromethyl-phenyl)-2,3-dihydro-imidazole-1-carboxylic acid [(S)-1-(5-dimethylaminomethyl-oxazol-2-yl)-2-methyl-propyl]-amide], with < 1 nM.
The result for `CC[C@H](NC(=O)n1c(-c2ccnn2-c2ccc(C#N)cc2)c(C)n(-c2cccc(C(F)(F)F)c2)c1=O)c1ncc(CN(C)C)o1` [Example 22, 5-[2-(4-Cyano-phenyl)-2H-pyrazol-3-yl]-4-methyl-2-oxo-3-(3-trifluoromethyl-phenyl)-2,3-dihydro-imidazole-1-carboxylic acid [(S)-1-(5-dimethylaminomethyl-oxazol-2-yl)-propyl]-amide] reads < 1 nM; that for `Cc1c(-c2ccnn2-c2ccc(C#N)cc2)n(C(=O)NC2(c3ncc(CN(C)C)o3)CC2)c(=O)n1-c1cccc(C(F)(F)F)c1` [Example 23, 5-[2-(4-Cyano-phenyl)-2H-pyrazol-3-yl]-4-methyl-2-oxo-3-(3-trifluoromethyl-phenyl)-2,3-dihydro-imidazole-1-carboxylic acid [1-(5-dimethylaminomethyl-oxazol-2-yl)-cyclopropyl]-amide], < 1 nM.
The result for `Cc1c(-c2ccnn2-c2ccc(C#N)cc2)n(C(=O)NC(C)(C)c2ncc(CN(C)C)o2)c(=O)n1-c1cccc(C(F)(F)F)c1` [Example 24, 5-[2-(4-Cyano-phenyl)-2H-pyrazol-3-yl]-4-methyl-2-oxo-3-(3-trifluoromethyl-phenyl)-2,3-dihydro-imidazole-1-carboxylic acid [1-(5-dimethylaminomethyl-oxazol-2-yl)-1-methyl-ethyl]-amide] reads < 1 nM; that for `Cc1c(-c2ccnn2-c2ccc(C#N)cc2)n(C(=O)NC2(C)CCN(C(=O)CN(C)C)CC2)c(=O)n1-c1cccc(C(F)(F)F)c1` [Example 25, 5-[2-(4-Cyano-phenyl)-2H-pyrazol-3-yl]-4-methyl-2-oxo-3-(3-trifluoromethyl-phenyl)-2,3-dihydro-imidazole-1-carboxylic acid [1-(2-dimethylamino-acetyl)-4-methyl-piperidin-4-yl]-amide], < 1 nM.
`Cc1c(-c2ccnn2-c2ccc(C#N)cc2)n(C(=O)N[C@H]2CC[C@H](NC(=O)CN(C)C)CC2)c(=O)n1-c1cccc(C(F)(F)F)c1` [Example 26, 5-[2-(4-Cyano-phenyl)-2H-pyrazol-3-yl]-4-methyl-2-oxo-3-(3-trifluoromethyl-phenyl)-2,3-dihydro-imidazole-1-carboxylic acid [trans-4-(2-dimethylamino-acetylamino)-cyclohexyl]-amide]: the IC50 is < 1 nM.
The result for `Cc1c(-c2ccnn2-c2ccc(C#N)cc2)n(C(=O)N[C@H]2CC[C@H](CNC(=O)CN(C)C)CC2)c(=O)n1-c1cccc(C(F)(F)F)c1` [Example 27, 5-[2-(4-Cyano-phenyl)-2H-pyrazol-3-yl]-4-methyl-2-oxo-3-(3-trifluoromethyl-phenyl)-2,3-dihydro-imidazole-1-carboxylic acid {trans-4-[(2-dimethylamino-acetylamino)-methyl]-cyclohexyl}-amide] reads < 1 nM.
Then `Cc1c(-c2ccnn2-c2ccc(C#N)cc2)n(C(=O)N[C@@H](C)C(=O)N(C)C2CCN(C)CC2)c(=O)n1-c1cccc(C(F)(F)F)c1` [Example 28, 5-[2-(4-Cyano-phenyl)-2H-pyrazol-3-yl]-4-methyl-2-oxo-3-(3-trifluoromethyl-phenyl)-2,3-dihydro-imidazole-1-carboxylic acid {(S)-1-[methyl-(1-methyl-piperidin-4-yl)-carbamoyl]-ethyl}-amide], with < 1 nM; and `Cc1c(-c2ccnn2-c2ccc(C#N)cc2)n(C(=O)N[C@H]2CC[C@H](C[N+](C)(C)C)CC2)c(=O)n1-c1cccc(C(F)(F)F)c1` [Example 29, (Trans-4-{[5-[2-(4-cyano-phenyl)-2H-pyrazol-3-yl]-4-methyl-2-oxo-3-(3-trifluoromethyl-phenyl)-2,3-dihydro-imidazole-1-carbonyl]-amino}-cyclohexylmethyl)-trimethyl-ammonium benzene sulfonate], with < 1 nM; and `Cc1c(-c2ccnn2-c2ccc(C#N)cc2)n(C(=O)N[C@H]2CC[C@H](C[N+](C)(C)Cc3ccccc3)CC2)c(=O)n1-c1cccc(C(F)(F)F)c1` [Example 30, Benzyl-(trans-4-{[5-[2-(4-cyano-phenyl)-2H-pyrazol-3-yl]-4-methyl-2-oxo-3-(3-trifluoromethyl-phenyl)-2,3-dihydro-imidazole-1-carbonyl]-amino}-cyclohexylmethyl)-dimethyl-ammonium bromide], with < 1 nM.
As to `CC[N+](C)(C)C[C@H]1CC[C@H](NC(=O)n2c(-c3ccnn3-c3ccc(C#N)cc3)c(C)n(-c3cccc(C(F)(F)F)c3)c2=O)CC1` [Example 31, (Trans-4-{[5-[2-(4-cyano-phenyl)-2H-pyrazol-3-yl]-4-methyl-2-oxo-3-(3-trifluoromethyl-phenyl)-2,3-dihydro-imidazole-1-carbonyl]-amino}-cyclohexylmethyl)-ethyl-dimethyl-ammonium benzene sulfonate], the IC50 is < 1 nM.
Then `Cc1c(-c2ccnn2-c2ccc(C#N)cc2)n(C(=O)NC2CC[N+](C)(C)CC2)c(=O)n1-c1cccc(C(F)(F)F)c1` [Example 32, 4-{[5-[2-(4-Cyano-phenyl)-2H-pyrazol-3-yl]-4-methyl-2-oxo-3-(3-trifluoromethyl-phenyl)-2,3-dihydro-imidazole-1-carbonyl]-amino}-1,1-dimethyl-piperidinium benzenesulfonate], with < 1 nM; and `Cc1c(-c2ccnn2-c2ccc(C#N)cc2)n(C(=O)N[C@@H]2CC[N+](C)(C)C2)c(=O)n1-c1cccc(C(F)(F)F)c1` [Example 33, (R)-3-{[5-[2-(4-Cyano-phenyl)-2H-pyrazol-3-yl]-4-methyl-2-oxo-3-(3-trifluoromethyl-phenyl)-2,3-dihydro-imidazole-1-carbonyl]-amino}-1,1-dimethyl-pyrrolidinium benzenesulfonate], with 1 to 10 nM.
Then `Cc1c(-c2ccnn2-c2ccc(C#N)cc2)n(C(=O)N[C@H]2CC[N+](C)(C)C2)c(=O)n1-c1cccc(C(F)(F)F)c1` [Example 34, (S)-3-{[5-[2-(4-Cyano-phenyl)-2H-pyrazol-3-yl]-4-methyl-2-oxo-3-(3-trifluoromethyl-phenyl)-2,3-dihydro-imidazole-1-carbonyl]-amino}-1,1-dimethyl-pyrrolidinium benzenesulfonate], with < 1 nM.
For `Cc1c(-c2ccnn2-c2ccc(C#N)cc2)n(C(=O)NC(C)C2CC[N+](C)(C)CC2)c(=O)n1-c1cccc(C(F)(F)F)c1` (stereo not shown) [Example 35, 4-(1-{[5-[2-(4-Cyano-phenyl)-2H-pyrazol-3-yl]-4-methyl-2-oxo-3-(3-trifluoromethyl-phenyl)-2,3-dihydro-imidazole-1-carbonyl]-amino}-ethyl)-1,1-dimethyl-piperidinium benzene sulfonate], the 50% inhibitory concentration (IC50) is < 1 nM.
Then `Cc1c(-c2ccnn2-c2ccc(C#N)cc2)n(C(=O)N[C@H]2C[C@H]3CC[C@@H](C2)[N+]3(C)C)c(=O)n1-c1cccc(C(F)(F)F)c1` [Example 36, (1S,3R,5R)-3-{[5-[2-(4-Cyano-phenyl)-2H-pyrazol-3-yl]-4-methyl-2-oxo-3-(3-trifluoromethyl-phenyl)-2,3-dihydro-imidazole-1-carbonyl]-amino}-8,8-dimethyl-8-azonia-bicyclo[3.2.1]octane benzene sulfonate], with < 1 nM; and `Cc1c(-c2ccnn2-c2ccc(C#N)cc2)n(C(=O)N[C@@H]2C[C@@H]3C[N+](C)(C)C[C@@H]3C2)c(=O)n1-c1cccc(C(F)(F)F)c1` [Example 37, (3aS,5R,6aR)-5-{[5-[2-(4-Cyano-phenyl)-2H-pyrazol-3-yl]-4-methyl-2-oxo-3-(3-trifluoromethyl-phenyl)-2,3-dihydro-imidazole-1-carbonyl]-amino}-2,2-dimethyl-octahydro-cyclopenta[c]pyrrolium benzene sulfonate], with < 1 nM.

Source of the values: patent US10023558B2, “Compounds” (CHIESI FARMACEUTICI S.P.A., priority 2016, dated 2018).
